The structures appear in SMILES notation. pIC50: −log10 of the molar value. In brackets after ≈: the same amount, converted by molar mass.

Assay [1] relates to HCT-116. The experiment in a line: Cytotoxicity against human HCT116 cells expressing wild type p53 incubated for 72 hrs by MTS assay. To be noted: HCT-116, 72 h. On the technique in general: Formazan colour is commonly taken as a measure of viable cells.
The test system of assay [2] is HCT-116. The experiment in a line: Cytotoxicity against human HCT116 cells deficient in p53 incubated for 72 hrs by MTS assay. The settings on record: HCT-116, 72 h.
The next assay deals with U-251. The experiment in a line: Cytotoxicity against human U251 cells harboring mutant TP53 gene incubated for 72 hrs by MTS assay. The format is functional, cell-based. The settings on record: U-251, 72 h.
The next assay concerns NHDF. The experiment in a line: Cytotoxicity against human NHDF cells incubated for 72 hrs by MTS assay. The format is cell-based.
The next assay has as its system PANC-1. The experiment in a line: Cytotoxicity against human PANC1 cells harboring mutant TP53 gene incubated for 72 hrs by MTS assay. It counts as functional, cell-based. To be noted: PANC-1, 72 h.
In assay [3] the test system is HCT-116. The experiment in a line: Anticancer activity against human HCT116 cells deficient in p53 assessed as inhibition of cell proliferation. It counts as functional, cell-based.
The test system of assay [4] is HCT-116. The experiment in a line: Anticancer activity against human HCT116 cells assessed as inhibition of cell proliferation.
The next assay deals with HepG2. The experiment in a line: Anticancer activity against human HepG2 cells assessed as inhibition of cell proliferation. It counts as functional, cell-based.
A further assay relates to MCF7. The experiment in a line: Anticancer activity against human MCF7 cells assessed as inhibition of cell proliferation. It counts as functional, cell-based.
A further assay has as its system ASPC1. The experiment in a line: Cytotoxicity against human AsPC1 cells deficit of P53 gene incubated for 72 hrs by MTS assay. The format is functional, cell-based. To be noted: ASPC1, 72 h.

For orientation: pIC50 means the IC50 on a negative log10 scale, so that one unit is a factor of ten. With `Oc1cccc2ccc(/C=C/c3c(F)cccc3Cl)nc12`, the negative-log IC50 (pIC50) in the assay with HCT-116 [1] and in the assay with HCT-116 [2] was less than 4.60 in each case.

Take `COc1ccc(/C=C/c2nc(NCCCN(C)C)c3ccccc3n2)cc1`: the negative-log IC50 (pIC50) is 4.73 in the assay on U-251; 4.91 with NHDF; less than 4.60 with PANC-1 (read-out: IC50); 4.73 in the assay on HCT-116 [1]; 4.58 with HCT-116 [2].

With `Oc1cccc2ccc(/C=C/c3ccccc3F)nc12`, the pIC50 with HCT-116 [3] is 5.08.

For the molecule `CC(=O)Oc1ccccc1/C=C/c1ccc2cccc(O)c2n1`, the pIC50 in the assay with NHDF is 5.16; in the assay with HCT-116 [4] it was 5.14; in the assay with HCT-116 [1], 5.14; in the assay on HCT-116 [2], 4.87.

As usually defined, the IC50 is the concentration that gives 50% inhibition. On to `CN(C)c1ccc(/C=C/c2cc(-c3nnc(N)s3)c3cc(Br)ccc3n2)cc1`, for which the IC50 in the assay on HepG2 stood at 9 µg/mL (≈ 19.9 µM).

`COc1cccc2c(Nc3ccc(/C(C)=N/O)cc3)cc(/C=C/c3ccccc3)nc12`: the IC50 in the assay with MCF7 is greater than 4 µg/mL.

Consider `Oc1ccc(/C=C/c2ccc3cccc(O)c3n2)cc1`, for which the negative-log IC50 (pIC50) with NHDF is less than 4.60; in the assay on HCT-116 [1] it was 4.87; in the assay with HCT-116 [2] it was 4.78.

Regarding `COc1cccc2c1C(=O)c1c(O)c3c(c(O)c1C2=O)C[C@@](O)(C(=O)CO)C[C@@H]3O[C@H]1C[C@H](N)[C@H](O)[C@H](C)O1` [DOXORUBICIN], the pIC50 in the assay on U-251 was 7.30; with NHDF it was 6.85; in the assay with PANC-1, 6.14; in the assay on HCT-116 [1], 6.47; in the assay on HCT-116 [2], 6.42; in the assay with ASPC1, 6.07.

For `O=c1[nH]cc(F)c(=O)[nH]1` [FLUOROURACIL], the negative logarithm of the IC50 (pIC50) with NHDF was less than 4.60; in the assay on HCT-116 [1] it was 5.35; in the assay with HCT-116 [2], 5.33.

(Values after ChEMBL document CHEMBL4350997, “The synthesis and anticancer activity of 2-styrylquinoline derivatives. A p53 independent mechanism of action” (Eur J Med Chem, 2019).)
